# Source: patent EP4624465A1, “COMPOUND SERVING AS DDR1 KINASE INHIBITOR, AND MEDICINE” (Nippon Shinyaku Co., Ltd., priority 2022, dated 2024)
# Where a name gives a salt, the structure may show the parent alone.
# Target: DDR1 kinase (Homo sapiens, UniProt Q08345)
# Test: Evaluation of DDR1 kinase inhibition (LANCE Ultra TR-FRET kinase assay)
# Format: biochemical
# Parameters: purchased Carna Biosciences 08-113
# Conditions: DDR1 protein 0.5 nM, LANCE Ultra ULight-poly GAT substrate, 2 hours at room temperature, duplicate; read-out: DDR-1 IC50
# Chain of DDR1 kinase (Q08345 19-876 isoform Q08345-2 limits assumed): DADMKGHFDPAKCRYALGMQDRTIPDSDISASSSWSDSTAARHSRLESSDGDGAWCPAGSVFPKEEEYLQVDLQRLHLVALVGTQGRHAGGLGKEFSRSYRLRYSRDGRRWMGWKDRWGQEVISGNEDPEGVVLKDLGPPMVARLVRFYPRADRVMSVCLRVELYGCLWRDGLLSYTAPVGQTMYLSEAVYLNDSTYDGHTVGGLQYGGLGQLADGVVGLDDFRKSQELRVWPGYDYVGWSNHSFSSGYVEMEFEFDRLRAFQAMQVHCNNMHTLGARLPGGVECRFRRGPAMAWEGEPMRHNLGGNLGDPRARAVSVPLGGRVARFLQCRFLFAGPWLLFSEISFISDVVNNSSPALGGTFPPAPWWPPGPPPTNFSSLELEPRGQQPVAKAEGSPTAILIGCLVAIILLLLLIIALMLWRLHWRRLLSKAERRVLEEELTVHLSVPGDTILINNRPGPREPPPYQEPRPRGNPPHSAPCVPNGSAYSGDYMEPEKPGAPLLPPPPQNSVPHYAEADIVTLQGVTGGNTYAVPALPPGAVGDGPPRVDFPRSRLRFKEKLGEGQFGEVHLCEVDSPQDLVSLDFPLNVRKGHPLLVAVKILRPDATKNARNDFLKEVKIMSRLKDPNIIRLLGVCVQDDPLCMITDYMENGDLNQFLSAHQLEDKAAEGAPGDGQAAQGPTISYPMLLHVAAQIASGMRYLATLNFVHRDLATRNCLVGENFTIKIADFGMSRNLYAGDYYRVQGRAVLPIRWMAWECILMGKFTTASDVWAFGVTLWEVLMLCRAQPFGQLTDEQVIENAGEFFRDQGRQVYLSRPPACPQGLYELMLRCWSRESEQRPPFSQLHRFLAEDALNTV
row,Structure (SMILES),IC50 [nM]
1,"Nc1cc(C(=O)N2CCC(c3nn(Cc4ccc(C(F)(F)F)nc4)c4cccc(F)c34)CC2)ccn1 [Compound E-134, 4-[4-(4-fluoro-1-([6-(trifluoromethyl)pyridin-3-yl]methyl)-1H-indazol-3-yl)piperidine-1-carbonyl]pyridin-2-amine]",110
2,Nc1cc(C(=O)N2CC(c3nn(Cc4noc(C5CCOCC5)n4)c4cccc(F)c34)C2)ccn1 [Compound E-137],34
3,"Nc1cc(C(=O)N2CC(c3nn(Cc4nc(-c5ccncc5)no4)c4cccc(F)c34)C2)ccn1 [Compound E-138, 4-[3-(4-fluoro-1-{(S-(pyridin-4-yl)-1,2,4-oxadiazol-5-yl]methyl}-1H-indazol-3-yl)azetidine-1-carbonyl]pyridin-2-amine]",50
4,Nc1cc(C(=O)N2CC(c3nn(Cc4ccc(C(F)(F)F)cn4)c4cncc(F)c34)C2)ccn1 [Compound E-150],350
5,"Nc1cc(C(=O)N2CC(c3nn(Cc4ccc(C(F)(F)F)cc4)c4cncc(F)c34)C2)ccn1 [Compound E-151, 4-[3-(4-fluoro-1-{[4-(trifluromethyl)phenyl]methyl}-1H-pyrazolo[3,4-c]pyridin-3-yl)azetidine-1-carbonyl]pyridin-2-amine]",160
6,"Nc1cc(C(=O)N2CC(c3nn(CC#Cc4ccccc4)c4cc(F)cc(F)c34)C2)ccn1 [Compound E-152, 4-{3-[4,6-difluoro-1-(3-phenylprop-2-yn-1-yl)-1H-indazol-3-yl]azetidine-1-carbonyl)pyridin-2-amine]",90
7,"Nc1cc(C(=O)N2CC(c3nn(Cc4noc(-c5ccc(F)cn5)n4)c4cccc(F)c34)C2)ccn1 [Compound E-153, 4-{3-(4-fluoro-1-{[5-(5-fluoropyridin-2-yl)-1,2,4-oxadiazol-3-yl]methyl}-1H-indazol-3-yl)azetidine-1-carbonyl]pyridin-2-amine]",140
8,"Cc1ccc(-c2nc(Cn3nc(C4CN(C(=O)c5ccnc(N)c5)C4)c4c(F)cccc43)no2)nn1 [Compound E-154, 4-[3-(4-fluoro-1-{[5-(6-methylpyridazin-3-yl)-1,2.4-oxadiazol-3-yl}methyl}-1H-indazol-3-yl)azetidine-1-carbony1]pyridin-2-amine]",270
9,"Nc1cc(C(=O)N2CC(c3nn(CC4CN(c5ccccc5)C4)c4cc(F)cc(F)c34)C2)ccn1 [Compound E-157, 4-(3-{4,6-difluoro-1-[(1-phenylazetidin-3-yl)methyl)-1H-indazol-3-yl}azetidine-1-carbonyl)pyridin-2-amine]",350
10,"Nc1cc(C(=O)N2CC(c3nn(Cc4noc(-c5ccccc5F)n4)c4cncc(F)c34)C2)ccn1 [Compound E-160, 4-[3-(4-fluoro-1-{[5-(2-fluorophenyl)-1,2,4-oxadiazol-3-yl]methyl}-1H-pyrazolo[3,4-c]pyridin-3-yl)azetidine-1-carbonyl]pyridin-2-amine]",140
11,"O=C(C1CCOCC1)N1CC(c2nn(CC(=O)N3CCC[C@H]3C(F)(F)F)c3cc(F)cc(F)c23)C1 [Compound E-162, 2-{4,6-difluoro-3-[1-(oxane-4-carbonyl)azetidin-3-yl]-1H-indazol-1-yl}-1-[(2S)-2-(trifluoromethyl)pyrrolidin-1-yl]ethan-1-one]",320
12,"O=C(c1cn[nH]c1)N1CC(c2nn(CC(=O)N3CCC[C@H]3C(F)(F)F)c3cc(F)cc(F)c23)C1 [Compound E-164, 2-(4,6-difluoro-3-[1-(1H-pyrazole-4-carbonyl)azetidin-3-yl]-1H-indazol-1-yl}-1-[(28)-2-(trifluoromethyl)pyrrolidin-1-yl]ethan-1-one]",200
13,"O=C(c1cn[nH]c1C(F)(F)F)N1CC(c2nn(CC(=O)N3CCC[C@H]3C(F)(F)F)c3cc(F)cc(F)c23)C1 [Compound E-166, 2-(4,6-difluoro-3-{1-[5-(trifluoromethyl)-1H-pyrazole-4-carbonyl]azetidin-3-yl}-1H-indazol-1-yl)-1-[(2S)-2-(trifluoromethyl)pyrrolidin-1-yl]ethan-1-one]",150
14,"Cc1cc2c(C3CN(C(=O)c4ccnc(N)c4)C3)nn(Cc3ccc(C(F)(F)F)cc3)c2cn1 [Compound E-168, 4-[3-(5-methyl-1-{[4-(trifluoromethyl)phenyl]methyl]-1H-pyrazolo[3,4-c]pyridin-3-yl)azetidine-1-carbonyl]pyridin-2-amine]",64
15,Nc1cc(C(=O)N2CC(c3nn(Cc4nc(-c5ccncc5F)no4)c4cncc(F)c34)C2)ccn1 [Compound E-170],220
16,"Nc1cc(C(=O)N2CC(c3nn(CC4Cc5ccccc5C4)c4cc(F)cc(F)c34)C2)ccn1 [Compound E-171, 4-(3-{1-[(2,3-dihydro-1H-inden-2-yl)methyl]-4,6-difluoro-1H-indazol-3-yl}azetidine-1-carbonyl)pyridin-2-amine]",34
17,"Cc1nc(N)sc1C(=O)N1CC(c2nn(CC(=O)N3CCO[C@@H](C(F)(F)F)C3)c3cc(F)cc(F)c23)C1 [Compound E-173, 2-(3-[1-(2-amino-4-methyl-1,3-thiazole-5-carbonyl)azetidin-3-yl]-4,6-difluoro-1H-indazol-1-yl}-1-[(2R)-2-(trifluoromethyl)morpholin-4-yl]ethan-1-one]",70

# Stronger by IC50, values ahead:
row,IC50 [nM],Structure (SMILES)
1,23,"COc1cnccc1C(=O)N1CC(c2nn(CC(=O)N3CCC[C@H]3C(F)(F)F)c3cc(F)cc(F)c23)C1 [Compound E-133, 2-{4,6-difluoro-3-[1-(3-methoxypyridine-4-carbonyl)azetidin-3-yl)-1H-indazol-1-yl}-1-[(28)-2-(trifluoromethyl)pyrrolidin-1-yl]ethan-1-one]"
2,0.8,"O=C(c1ccc2[nH]ncc2c1)N1CC(c2nn(CC(=O)N3CCC[C@H]3C(F)(F)F)c3cc(F)cc(F)c23)C1 [Compound E-140, 2-{4,6-difluoro-3-[1-(1H-indazole-5-carbonyl)azetidin-3-yl]-1H-indazol-1-yl}-1-[(28)-2-(trifluoromethyl)pyrrolidin-1-yl]ethan-1-one]"
3,5,O=C(c1ccc2[nH]ncc2n1)N1CC(c2nn(CC(=O)N3CCC[C@H]3C(F)(F)F)c3cc(F)cc(F)c23)C1 [Compound E-141]
4,7.9,"O=C(c1ccncc1F)N1CC(c2nn(CC(=O)N3CCC[C@H]3C(F)(F)F)c3cc(F)cc(F)c23)C1 [Compound E-142, 2-{4,6-difluoro-3-[1-(3-fluoropyridine-4-carbonyl)azetidin-3-yl]-1H-indazol-1-yl]-1-[(2S)-2-(trifluoromethyl)pyrrolidin-1-yl]ethan-1-one]"
5,4.1,"O=C(c1ccncc1Cl)N1CC(c2nn(CC(=O)N3CCC[C@H]3C(F)(F)F)c3cc(F)cc(F)c23)C1 [Compound E-143, 2-{3-[1-(3-chloropyridine-4-carbonyl)azetidin-3-yl]-4,6-difluoro-1H-indazol-1-yl}-1-[(28)-2-(trifluoromethyl)pyrrolidin-1-yl]ethan-1-one]"
6,1.4,"Nc1cc(C(=O)N2CC(c3nn(CC(=O)N4CCC[C@H]4C(F)(F)F)c4ccc(F)c(Cl)c34)C2)ccn1 [Compound E-144, 2-{3-[1-(2-aminopyridine-4-carbonyl)azetidin-3-yl]-4-chloro-5-fluoro-1H-indazol-1-yl}-1-[(2S)-2-(trifluoromethyl)pyrrolidin-1-yl]ethan-1-one]"
7,0.4,"Nc1cc(C(=O)N2CC(c3nn(Cc4noc(C5(C(F)(F)F)CCC5)n4)c4cccc(F)c34)C2)ccn1 [Compound E-146, 4-{3-[4-fluoro-1-({5-[1-(trifluoromethyl)cyclobutyl]-1,2,4-oxadiazol-3-yl}methyl)-1H-indazol-3-yl]azetidine-1-carbonyl}pyridin-2-amine hydrochloride]"
8,0.3,Nc1cc(C(=O)N2CC(c3nn(Cc4noc(C5(C(F)(F)F)CC5)n4)c4cccc(F)c34)C2)ccn1 [Compound E-147]
9,1.9,"Nc1cc(C(=O)N2CC(c3nn(Cc4noc(-c5ccccc5F)n4)c4cccc(F)c34)C2)ccn1 [Compound E-148, 4-[3-(4-fluoro-1-i[5-(2-fluorophenyl)-1,2,4-oxadiazol-3-yl]methyl}-1H-indazol-3-yl)azetidine-1-carbonyllpyridin-2-amine]"
10,2.4,Nc1cc(C(=O)N2CC(c3nn(CC(=O)N4CCC[C@H]4C(F)(F)F)c4cc(F)cc(F)c34)C2)c(F)cn1 [Compound E-155]
11,12,Nc1cc(C(=O)N2CC(c3nn(CC#CC4CC4)c4cc(F)cc(F)c34)C2)ccn1 [Compound E-156]
12,0.6,"Nc1cc(C(=O)N2CC(c3nn(CC(=O)N4CCCc5ccccc54)c4cc(F)cc(F)c34)C2)ccn1 [Compound E-158, 2-{3-[1-(2-aminopyridine-4-carbonyl)azetidin-3-yl]-4,6-difluoro-1H-indazol-1-yl}-1-(1,2,3,4-tetrahydroquinolin-1-yl)ethan-1-one]"
13,1.2,"Nc1cc(C(=O)N2CC(c3nn(CC(=O)N4CCOc5ccccc54)c4cc(F)cc(F)c34)C2)ccn1 [Compound E-159, 2-{3-{1-(2-aminopyridine-4-carbonyl)azetidin-3-yl]-4,6-difluoro-1H-indazol-1-yl]-1-(3,4-dihydro-2H-1,4-benzoxazin-4-yl)ethan-1-one]"
14,0.3,Nc1cc(C(=O)N2CC(c3nn(CC(=O)N4CCc5ccc(Br)cc54)c4cc(F)cc(F)c34)C2)ccn1 [Compound E-161]
15,29,"Cc1[nH]ncc1C(=O)N1CC(c2nn(CC(=O)N3CCC[C@H]3C(F)(F)F)c3cc(F)cc(F)c23)C1 [Compound E-165, 2-{4,6-difluoro-3-[1-(5-methyl-1H-pyrazole-4-carbonyl)azetidin-3-yl]-1H-indazol-1-yl}-1-[(28)-2-(trifluoromethyl)pyrrolidin-1-yl]ethan-1-one]"
16,1.3,Nc1cc(C(=O)N2CC(c3nn(CC(=O)N4CCc5ccc(C6CC6)cc54)c4cc(F)cc(F)c34)C2)ccn1 [Compound E-172]
17,1.1,"Nc1cc(C(=O)N2CCC(c3nn(CC(=O)N4CCC[C@H]4C(F)(F)F)c4cccc(F)c34)CC2)c(F)cn1 [Compound E-174, 2-{3-[1-(2-amino-5-fluoropyridine-4-carbonyl)piperidin-4-yl]-4-fluoro-1H-indazol-1-yl}-1-[(2S)-2-(trifluoromethyl)pyrrolidin-1-yl]ethan-1-one]"
